≈ marks a conversion by molar mass, not a printed value.
Each compound was assayed on KB (assay: Cytotoxicity against human KB cells). Settings: read-out: ED50 (the source's name).
Type: functional

Compared with `CCCCCCCCCCCC[C@@H](O)[C@H](O)CC[C@H](O)C[C@@H](O)C[C@H](O)[C@@H]1CC[C@@H]([C@H](O)CC[C@@H](O)CC2=C[C@H](C)OC2=O)O1` [CORIAHEPTOCIN A], `CCCCCCCCCCCC[C@@H](O)[C@H](O)CC[C@H](O)C[C@@H](O)C[C@H](O)[C@@H]1CC[C@H]([C@H](O)CC[C@@H](O)CC2=C[C@H](C)OC2=O)O1` [CORIAHEPTOCIN B] is 3.5-fold lower in EC50: 0.63 µg/mL (≈ 0.977 µM) for the first, 0.18 µg/mL (≈ 0.279 µM) for the second.

In the case of `CC(=O)O[C@H]1C(=O)[C@@]2(C)[C@H]([C@H](OC(=O)c3ccccc3)[C@]3(O)C[C@H](OC(=O)[C@H](O)[C@@H](NC(=O)c4ccccc4)c4ccccc4)C(C)=C1C3(C)C)[C@]1(OC(C)=O)CO[C@@H]1C[C@@H]2O` [PACLITAXEL], the EC50 is reported as 0.02 µg/mL (≈ 0.0234 µM).

— ChEMBL document CHEMBL1146393, “Coriaheptocins A and B, the First Heptahydroxylated Acetogenins, Isolated from the Roots of Annona coriacea 1” (1997)
